Measured values from patent US20130040882A1, “USE OF FIBROBLAST GROWTH FACTOR FRAGMENTS” (NOVARTIS AG, priority 2003, published 2013).

B1: FGF23CTP: unique 75-mer COOH-terminal peptide of FGF-23, SEQ ID NO: 2 (peptide, listed as Homo sapiens)
chain: HTRSAEDDSERDPLNVLKPRARMTPAPASCSQELPSAEDNSPMASDPLGVVRGGRVNTHAGGTGPEGCRPFAKFI

Experiments:
uterine gene expression = assay: Ranking of drug activity according to uterine GEP (GEP scoring axis, PCA; estrogenic potency score); type: in vivo, cynomolgus monkeys (Macaca fascicularis)
Excerpt: To define a reference axis representing the desired pharmacological/toxicological action, we used a priori knowledge of 2 groups representing or approximating the extremes of the condition under study. These consisted of the OVX group (OVX untreated animals representing the one extreme) and OVX+estradiol (OVX animals treated with estradiol, an agent know to exercise a well-defined action, representing the other extreme). These two groups were used to quantitatively scale the axis. Other compounds were then positioned on this axis whereby the drugs could be ranked with regard to specific aspects of a pharmacological/toxicological action.
Generally, the data derived from an individual microarray, proteomic, or metabolite profiling experiment can be considered as a fingerprint. […] Thus, selection and elimination of the appropriate features is an important aspect of this methodology and the quantitative nature of this approach depends on the features used to define the axis of drug action.
In the case of a well-defined condition, it is possible to invoke a priori knowledge on the selection of features. If the molecular biology of the specific drug action is known, the features (e.g. genes, metabolites) to be used for the definition of the axis can be defined a priori. In the case of a less-well-defined condition, it is possible to use univariate filters (in this case, gene intensity >50, ≧1.5-fold change in expression vs. controls [OVX], and statistical significance and statistical methods to identify and exclude non-informative features.
Issues of transformation, centering (variable-wise), and scaling of the data were considered. In the case of microarrays, the data were log10-transformed and probe set-wise centered. Generally, no scaling was applied. When using only a small number of biologically identified features, these were scaled to unit variance.
To calculate the axis of drug action, a principal component axis (PCA) was performed using only the 2 treatment groups that were at the extremes (the untreated OVX animals vs. the estrodiol-treated OVX animals). Massart D L et al., Handbook for Chemometrics and Qualimetrics, Part a. (Elsevier; 1997); Jolliffe I T. Principal Component Analysis. 2nd Edition (Springer; New York, N.Y., 2002). Only 1 principal component (PC) was calculated, which was a weighted linear combination of all features in the input data pointing in the direction of maximum variance. The weights of the probe sets in this linear combination were called “loadings” and their absolute value is a measure of their importance in explaining the difference between the 2 groups. Every measurement in the experiment (e.g. microarray) could then be represented by its coordinate (score) on the PC. Alternatively, to obtain an even better separation between the groups, the PLS-DA (Partial-Least-Squares Discriminate Analysis) method with a 0/1 dummy variable as response vector was used. […] Massart D L et al., Handbook of Chemometrics and Qualimetrics, Part b. (Elsevier; 1997). The next step was identification of the features that were important for the definition of the axis. This was based on the magnitude of their loadings and their statistical significance using error estimates based on cross-validation and/or normal probability plots of the loadings. Hunter W G & Hunter J S. Statistics for Experimenters: an Introduction to Design, Data Analysis, and Model Building. 1st Edition (Wiley; 1978). This enabled calculation of a new PCA model using only the important features.
If a pharmacological or toxicological action affected multiple biochemical pathways that were represented by grossly different numbers of features in the measurement, block scaling was used. Eriksson L et al., Multi-and Megavariate Data Analysis-Principles and Applications. (Umetrics Academy; 2001). This attributed the same influence to all pathways (groups of features) in the calculation of the PCA model. […]

[1] = test system: transcript levels in several organs; assay: In vivo gene expression profiling screen of peptides in mice (Example I); conditions: administration to mice
Protocol: In this EXAMPLE, 100 unknown chemically synthesized peptides are functionalized using the discovery method of the invention. Most of these peptides are present in human plasma.
As a control, twenty reference drugs are concurrently investigated with the discovery method of the invention. For this screening, one control and four treated groups of six males are treated for two weeks by daily administration by the subcutaneous route of the proteins. The reference drugs can be active for treating conditions in the areas of glaucoma, neuroprotection, neovascularisation, antiangiogenesis, acne, asthma and allergy, cardiovascular diseases, neurological disorder, pain, diabetes, hypercholesterolemia, osteoporosis and oncology.
The expectations from those selected active peptides are that (a) several potential therapeutic drugs could be identified; (b) target peptides for therapeutic antibodies could be identified; (c) new targets for research, deduced from the reconstructed biochemical pathways, could be identified; and (d) biomarkers, to be used to develop diagnostic tests could be identified. […] The protein/peptide selection rate is approximately 20%. The selection/prioritization criteria are the type of activity, the therapeutic interest and the suspected toxicity.

[2] = 123 genes thought to have a role in uterine function
[3] = 225 genes, statistically significant >1.5-fold changes
[4] = 673 genes, >1.5-fold change disregarding statistical significance

Row | Molecule | Estrogenic score (GEP score; OVX 0, estradiol 100) (uterine gene expression; [2]) | Estrogenic score (GEP score; OVX 0, estradiol 100) (uterine gene expression; [3]) | Estrogenic score (GEP score; OVX 0, estradiol 100) (uterine gene expression; [4]) | Estrogenic scores in specific gene groups (categories) (uterine gene expression; subanalysis per gene class) | Transcript level changes in several organs (activity) [1]
1 | O=C(c1ccc(OCCN2CCCCC2)cc1)c1c(-c2ccc(O)cc2)sc2cc(O)ccc12 [raloxifene] | 20 | 23 | 34 | −11 to 32 | –
2 | CC/C(=C(\c1ccccc1)c1ccc(OCCN(C)C)cc1)c1ccccc1 [tamoxifen] | 69 | 59 | 71 | – | –
3 | B1 | – | – | – | – | active
